Values quoted from earlier work in patent publication US11826321B2, “Cyclobenzaprine treatment for agitation, psychosis and cognitive decline in dementia and neurodegenerative conditions” (TONIX PHARMA HOLDINGS LIMITED, priority 2017, dated 2023).

Tests used:
[1] = molecular target: alpha-adrenergic-1A (α1A) receptor (Homo sapiens, UniProt P35348)
[2] = molecular target: serotonergic-2A (5-HT2A) receptor (Homo sapiens, UniProt P28223)
[3] = IR 5 to 10 mg TID and ER 15 mg BID/QD to 30 mg QD; scale to 3
[4] = IR 5 mg TID, 10 doses over 4 days, healthy elderly 62 to 80 years
[5] = PubMed, NIH Drug Reaction Navigator, Medscape Drug Interaction Checker, Drugs.com

serotonergic-2A (5-HT2A) receptor, sequence (P28223 whole entry, species assumed): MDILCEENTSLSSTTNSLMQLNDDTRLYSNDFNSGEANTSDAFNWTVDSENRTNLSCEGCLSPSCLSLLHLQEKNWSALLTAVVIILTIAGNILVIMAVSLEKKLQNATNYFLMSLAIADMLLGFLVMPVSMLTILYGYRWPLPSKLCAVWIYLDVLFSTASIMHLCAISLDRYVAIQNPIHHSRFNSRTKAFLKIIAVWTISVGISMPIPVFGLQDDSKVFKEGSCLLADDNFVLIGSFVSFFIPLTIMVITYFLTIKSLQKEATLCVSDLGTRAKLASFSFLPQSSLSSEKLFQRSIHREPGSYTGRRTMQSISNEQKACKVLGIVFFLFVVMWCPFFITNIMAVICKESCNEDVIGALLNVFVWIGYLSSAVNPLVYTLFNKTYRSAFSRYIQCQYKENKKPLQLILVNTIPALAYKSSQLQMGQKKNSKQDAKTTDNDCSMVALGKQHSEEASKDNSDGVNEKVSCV
alpha-adrenergic-1A (α1A) receptor, sequence (P35348 whole entry): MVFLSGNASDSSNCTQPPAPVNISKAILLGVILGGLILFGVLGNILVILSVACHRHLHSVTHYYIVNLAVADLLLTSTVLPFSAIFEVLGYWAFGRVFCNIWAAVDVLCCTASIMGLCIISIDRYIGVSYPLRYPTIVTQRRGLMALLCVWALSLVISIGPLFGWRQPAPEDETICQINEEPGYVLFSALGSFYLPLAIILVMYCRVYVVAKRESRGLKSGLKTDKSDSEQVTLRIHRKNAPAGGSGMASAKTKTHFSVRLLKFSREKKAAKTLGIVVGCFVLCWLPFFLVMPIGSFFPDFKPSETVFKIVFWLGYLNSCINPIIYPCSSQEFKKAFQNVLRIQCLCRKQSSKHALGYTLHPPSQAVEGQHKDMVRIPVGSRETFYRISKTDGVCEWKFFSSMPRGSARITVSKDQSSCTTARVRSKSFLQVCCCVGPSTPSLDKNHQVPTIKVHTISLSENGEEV

hallucinations reported among patients who took 5 mg TID (5 mg TID): none were reported | α1A antagonist potency [1]: potent | 5-HT2A antagonist potency [2]: potent | anticholinergic burden scale score [3]: 2
Structure (SMILES): CN(C)CCC=C1c2ccccc2C=Cc2ccccc21 [Cyclobenzaprine, 3-(5H-dibenzola[a,d]cyclohepten-5-ylidene)-N,N-dimethyl-1 propanamine]
incidence of hallucinations (cyclobenzaprine 10 mg, mostly elderly patients): 0.2% | drowsiness and cognitive test performance [4]: does not appear to cause excessive drowsiness or impair performance on cognitive tasks | reports of drug-drug interactions with donepezil, rivastigmine, galantamine, memantine [5]: did not identify any reports of interactions
